# Measured values as given in PMC9486168, “Protein-protein interaction-based high throughput screening for adenylyl cyclase 1 inhibitors: Design, implementation, and discovery of a novel chemotype” (Frontiers in Pharmacology, 2022).
# Like-named read-outs stand apart in the source and are kept apart here.
# Columns and labels:
# [1] = biological target: T1, AC1-C1b/CaM (Homo sapiens, UniProt P0DP23); assay: AC1-C1b/CaM fluorescence polarization (FP) assay; type: binding; conditions: for IC50: 100 nM AC1-C1b, 100 nM GST-CaM, 95% CI in brackets; for Ki: Cheng-Prusoff from FP IC50 and Kd; for AC1-CaM FP % inhib: relative to 100 μM CDZ (100% inhibition), highest concentration tested
# T1 construct: made in house; host or cells: E. coli BL21-CodonPlus (DE3)-RIPL
# [2] = biological target: T2, AC8-Nt/CaM (Homo sapiens, UniProt P0DP23); assay: AC8-Nt/CaM FP counterscreen assay; type: binding; conditions: for Ki (μM) AC8 NT: Cheng-Prusoff from FP IC50 and Kd, n/i given where none; for Ki ratio (AC8 NT/AC1): ratio >1: more potent in AC1/CaM FP;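 on all read-outs here: fluorescence polarization of AC peptide binding GST-CaM in HEPES buffer with CaCl2, compound preincubated with CaM 30 min, peptide read after 2 h at room temperature in dark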
# T2 construct: made in house; host or cells: E. coli BL21-CodonPlus (DE3)-RIPL
# [3] = biological target: T3, AC8-C2b/CaM (Homo sapiens, UniProt P0DP23); assay: AC8-C2b/CaM FP counterscreen assay; type: binding; conditions: for Ki (μM) AC8 C2b: Cheng-Prusoff from FP IC50 and Kd, n/i given where none; for Ki ratio (AC8-C2b/AC1): ratio >1: more potent in AC1/CaM FP;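 on all read-outs here: fluorescence polarization of AC peptide binding to GST-CaM in HEPES buffer with KCl and 50 µM CaCl2, compound preincubated 30 min with GST-CaM, DMSO and calmidazolium as controls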
# T3 construct: made in house; host or cells: E. coli BL21-CodonPlus (DE3)-RIPL
# [4] = biological target: T4, AC1/CaM PPI (Homo sapiens, UniProt P0DP23); assay: AC1/CaM NanoBiT assay in HEK293T cells; type: cell-based; conditions: HEK293T, thapsigargin-stimulated, AUC; read-out: Nanobit: AC1-CaM IC50 (μM ± SEM)
# T4 construct: human AC1 (hAC1) residues 1–1,118 were cloned; The hCaM residues 1–149, residues 1–1,248 of rat AC8 (rAC8); expressed in transfected cells; host or cells: HEK293T, transient transfection
# [5] = biological target: T5, AC8/CaM PPI (Homo sapiens, UniProt P0DP23); assay: AC8/CaM NanoBiT assay in HEK293T cells; type: cell-based, rat; conditions: for IC50: HEK293T, thapsigargin-stimulated, AUC, read-out: Nanobit: AC8-CaM IC50 (μM ± SEM); for fold selective for AC8 over AC1 in the NanoBiT assay: AC8/CaM vs AC1/CaM NanoBiT
# T5 construct: confirmed as an AC1/AC8 non-selective hit against full-length AC1- and AC8-CaM in the NanoBiT assay; The hCaM residues 1–149, residues 1–1,248 of rat AC8 (rAC8); expressed in transfected cells; host or cells: HEK293T, transient transfection
# [6] = CellTiter-Glo 2.0 cell viability assay; type: cell-based; conditions: human, HEK293T cells, pH 7.4; for viability at 30 min: at the compound's AC1/CaM NanoBiT IC50 concentration, read-out: % Viable Cells at AC1 IC50;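 on all read-outs here: luminescence read-out after 30 min compound exposure at 37 °C in HEPES-buffered HBSS, scaled to vehicle-treated cells as 100% and cell-free buffer wells as 0%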
# [7] = tested on: HEK293T cells; assay: CellTiter-Glo 2.0 cell viability assay; type: cell-based;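 further: luminescence read-out after 30 min compound exposure at 37 °C in HEPES-buffered HBSS, scaled to vehicle-treated cells as 100% and cell-free buffer wells as 0%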
# [8] = biological target: T6, AC1 (Homo sapiens, UniProt Q08828); assay: cAMP accumulation assay, AC1-HEK Δ3/6 KO cells; type: cell-based; conditions: for inhibition of AC1 activity (efficacy): initial characterization of hits, data not shown; for inhibition of AC1 activity: CDI analog set, maximal inhibition of A23187 response
# T6 construct: expressed in transfected cells
# T6 sequence (Q08828 whole entry): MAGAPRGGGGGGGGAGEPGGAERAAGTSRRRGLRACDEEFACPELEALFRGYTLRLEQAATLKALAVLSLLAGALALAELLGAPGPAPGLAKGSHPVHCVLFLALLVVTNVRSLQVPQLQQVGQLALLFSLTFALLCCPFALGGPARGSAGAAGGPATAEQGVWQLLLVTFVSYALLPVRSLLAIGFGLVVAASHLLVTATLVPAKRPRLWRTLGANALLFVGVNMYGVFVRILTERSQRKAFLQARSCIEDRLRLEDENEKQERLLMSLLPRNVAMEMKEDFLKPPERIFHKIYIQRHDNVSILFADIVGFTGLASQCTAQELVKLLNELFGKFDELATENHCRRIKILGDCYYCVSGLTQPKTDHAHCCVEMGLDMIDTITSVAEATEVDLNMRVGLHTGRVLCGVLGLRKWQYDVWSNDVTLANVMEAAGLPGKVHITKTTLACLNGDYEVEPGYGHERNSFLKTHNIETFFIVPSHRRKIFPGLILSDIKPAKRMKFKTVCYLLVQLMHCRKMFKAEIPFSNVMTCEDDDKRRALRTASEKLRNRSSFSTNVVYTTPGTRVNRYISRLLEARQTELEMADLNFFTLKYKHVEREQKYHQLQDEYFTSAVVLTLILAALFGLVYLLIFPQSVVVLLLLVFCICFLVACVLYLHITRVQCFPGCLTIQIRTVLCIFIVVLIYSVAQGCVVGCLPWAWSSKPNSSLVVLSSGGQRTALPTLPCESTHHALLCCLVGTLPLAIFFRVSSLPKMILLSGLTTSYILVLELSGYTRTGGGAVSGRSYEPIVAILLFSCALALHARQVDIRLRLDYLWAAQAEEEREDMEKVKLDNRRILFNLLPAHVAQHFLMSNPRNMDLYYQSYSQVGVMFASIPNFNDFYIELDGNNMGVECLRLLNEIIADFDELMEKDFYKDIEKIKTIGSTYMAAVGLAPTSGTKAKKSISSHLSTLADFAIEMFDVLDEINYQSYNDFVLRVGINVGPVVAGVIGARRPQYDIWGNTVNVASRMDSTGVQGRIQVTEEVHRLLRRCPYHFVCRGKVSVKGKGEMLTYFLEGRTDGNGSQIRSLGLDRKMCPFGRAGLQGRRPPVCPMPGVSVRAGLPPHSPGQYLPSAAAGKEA
# Protocol: Cells were then incubated for 1 h at 37°C and 5% CO2. Cells were then treated with varying concentrations of inhibitors for 30 min, followed by treatment with calcium ionophore A23187 (3 μM) in 500 μM 3-isobutyl-1-methylxanthine (IBMX), a phosphodiesterase inhibitor, for 1 h at RT (Sigma Aldrich, St. Louis, MO). Finally, Cisbio HTRF detection reagents were added and incubated for 1–24 h at RT. Plates were read according to manufacturer’s protocol on an HTRF-compatible plate reader at 620 and 665 nm cAMP concentrations were interpolated from a cAMP standard curve. […] For cytotoxicity assays, compounds were tested at 30 μM and this protocol was used with the exception of detection reagents; CellTiter-Glo 2.0 reagent was used according to manufacturer’s protocol and luminescence was read on the Synergy Neo2 plate reader. Data are normalized to cells treated with vehicle (100%) or 2% tween (0%) and are represented as the percent of vehicle, from the average of three independent experiments (N = 3).
# [9] = biological target: T7, CaM (Homo sapiens, UniProt P0DP23); assay: 1H-15N HSQC NMR of 15N-CaM with compound; type: binding; conditions: 5 equivalent molar excess over 100 μM CaM
# T7 construct: 6X-His-GST (N, cleaved yes); made in house; host or cells: E. coli BL21-CodonPlus (DE3)-RIPL in M9 minimal media with 15NH4Cl
# Protocol: All NMR samples contained 100 μM ^15N-CaM in 20 mM HEPES pH 7.4, 100 mM KCl, 10 mM CaCl2, 10% D2O, and 5% DMSO. Initial spectra were collected for CaM alone before individual compounds were titrated to observe chemical shift perturbations. All spectra were acquired at 298 K using a 600 MHz Bruker Avance NEO NMR spectrometer with a triple resonance gradient cryoprobe. NMR spectra were processed using NMRPipe and analyzed using NMRFAM-SPARKY.
# [10] = biological target: T8, AC8 (Homo sapiens, UniProt P40145); assay: cAMP accumulation assay, AC8-HEK Δ3/6 KO cells; type: cell-based; conditions: CDI analog SAR set, 3 μM A23187; read-out: IC50 (μM) ± SEM AC8
# T8 construct: expressed in transfected cells
# T8 sequence (P40145 whole entry, species assumed): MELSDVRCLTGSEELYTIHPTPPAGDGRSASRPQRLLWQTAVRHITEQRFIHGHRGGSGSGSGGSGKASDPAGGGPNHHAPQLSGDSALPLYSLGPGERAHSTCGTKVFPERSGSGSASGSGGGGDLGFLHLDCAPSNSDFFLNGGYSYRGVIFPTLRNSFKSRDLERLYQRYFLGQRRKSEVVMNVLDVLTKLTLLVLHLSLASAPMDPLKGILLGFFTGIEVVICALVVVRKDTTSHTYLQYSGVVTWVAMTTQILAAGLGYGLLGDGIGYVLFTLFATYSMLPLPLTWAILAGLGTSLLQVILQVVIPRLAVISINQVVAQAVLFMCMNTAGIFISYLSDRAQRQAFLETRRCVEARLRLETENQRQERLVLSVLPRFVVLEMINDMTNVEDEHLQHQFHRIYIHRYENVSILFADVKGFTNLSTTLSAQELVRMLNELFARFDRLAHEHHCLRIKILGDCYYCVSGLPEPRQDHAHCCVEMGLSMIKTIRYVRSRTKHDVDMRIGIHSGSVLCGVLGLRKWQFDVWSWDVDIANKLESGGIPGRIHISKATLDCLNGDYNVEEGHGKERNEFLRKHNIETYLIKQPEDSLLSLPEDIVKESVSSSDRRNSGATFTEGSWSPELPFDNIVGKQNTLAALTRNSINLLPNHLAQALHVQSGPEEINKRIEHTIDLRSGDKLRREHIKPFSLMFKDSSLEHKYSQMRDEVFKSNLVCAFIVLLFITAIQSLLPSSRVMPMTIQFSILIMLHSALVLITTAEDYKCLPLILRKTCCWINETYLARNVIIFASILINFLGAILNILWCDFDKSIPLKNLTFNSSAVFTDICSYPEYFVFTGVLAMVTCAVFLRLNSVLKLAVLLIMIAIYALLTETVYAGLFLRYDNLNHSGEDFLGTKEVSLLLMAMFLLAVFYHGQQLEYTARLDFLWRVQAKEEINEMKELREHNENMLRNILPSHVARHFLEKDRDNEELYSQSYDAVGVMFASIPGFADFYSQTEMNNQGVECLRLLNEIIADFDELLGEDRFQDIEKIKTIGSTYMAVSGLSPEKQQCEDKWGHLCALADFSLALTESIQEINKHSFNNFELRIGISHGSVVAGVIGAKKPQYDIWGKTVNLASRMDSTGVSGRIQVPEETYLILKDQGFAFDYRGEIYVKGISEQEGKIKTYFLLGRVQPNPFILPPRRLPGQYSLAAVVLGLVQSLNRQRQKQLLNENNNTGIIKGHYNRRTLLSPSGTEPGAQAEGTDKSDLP
# Protocol: (§1) Cryopreserved HEK293 cells with AC3 and AC6 knocked out, and stably expressing AC1, AC2, AC5, or AC8 (AC1-HEK Δ3/6 KO, AC2-HEK Δ3/6 KO, AC5-HEK Δ3/6 KO, or AC8-HEK Δ3/6 KO cells, respectively; [Soto-Velasquez et al., 2018]) were plated at 5,000 cells/well. Cells were then incubated for 1 h at 37°C and 5% CO2. Cells were then treated with varying concentrations of inhibitors for 30 min, followed by treatment with calcium ionophore A23187 (3 μM) in 500 μM 3-isobutyl-1-methylxanthine (IBMX), a phosphodiesterase inhibitor, for 1 h at RT (Sigma Aldrich, St. Louis, MO). Finally, Cisbio HTRF detection reagents were added and incubated for 1–24 h at RT. Plates were read according to manufacturer’s protocol on an HTRF-compatible plate reader at 620 and 665 nm cAMP concentrations were interpolated from a cAMP standard curve. […] For cytotoxicity assays, compounds were tested at 30 μM and this protocol was used with the exception of detection reagents; CellTiter-Glo 2.0 reagent was used according to manufacturer’s protocol and luminescence was read on the Synergy Neo2 plate reader. Data are normalized to cells treated with vehicle (100%) or 2% tween (0%) and are represented as the percent of vehicle, from the average of three independent experiments (N = 3).
# [11] = biological target: T9, AC2 (Homo sapiens, UniProt Q08462); assay: cAMP accumulation assay, AC2-HEK Δ3/6 KO cells; type: cell-based; conditions: for % Inhibited at AC2 ± SEM: 30 μM; for inhibition at 30 µM: read-out: % Inhibited at AC2 ± SEM
# T9 construct: expressed in transfected cells
# T9 sequence (Q08462 whole entry): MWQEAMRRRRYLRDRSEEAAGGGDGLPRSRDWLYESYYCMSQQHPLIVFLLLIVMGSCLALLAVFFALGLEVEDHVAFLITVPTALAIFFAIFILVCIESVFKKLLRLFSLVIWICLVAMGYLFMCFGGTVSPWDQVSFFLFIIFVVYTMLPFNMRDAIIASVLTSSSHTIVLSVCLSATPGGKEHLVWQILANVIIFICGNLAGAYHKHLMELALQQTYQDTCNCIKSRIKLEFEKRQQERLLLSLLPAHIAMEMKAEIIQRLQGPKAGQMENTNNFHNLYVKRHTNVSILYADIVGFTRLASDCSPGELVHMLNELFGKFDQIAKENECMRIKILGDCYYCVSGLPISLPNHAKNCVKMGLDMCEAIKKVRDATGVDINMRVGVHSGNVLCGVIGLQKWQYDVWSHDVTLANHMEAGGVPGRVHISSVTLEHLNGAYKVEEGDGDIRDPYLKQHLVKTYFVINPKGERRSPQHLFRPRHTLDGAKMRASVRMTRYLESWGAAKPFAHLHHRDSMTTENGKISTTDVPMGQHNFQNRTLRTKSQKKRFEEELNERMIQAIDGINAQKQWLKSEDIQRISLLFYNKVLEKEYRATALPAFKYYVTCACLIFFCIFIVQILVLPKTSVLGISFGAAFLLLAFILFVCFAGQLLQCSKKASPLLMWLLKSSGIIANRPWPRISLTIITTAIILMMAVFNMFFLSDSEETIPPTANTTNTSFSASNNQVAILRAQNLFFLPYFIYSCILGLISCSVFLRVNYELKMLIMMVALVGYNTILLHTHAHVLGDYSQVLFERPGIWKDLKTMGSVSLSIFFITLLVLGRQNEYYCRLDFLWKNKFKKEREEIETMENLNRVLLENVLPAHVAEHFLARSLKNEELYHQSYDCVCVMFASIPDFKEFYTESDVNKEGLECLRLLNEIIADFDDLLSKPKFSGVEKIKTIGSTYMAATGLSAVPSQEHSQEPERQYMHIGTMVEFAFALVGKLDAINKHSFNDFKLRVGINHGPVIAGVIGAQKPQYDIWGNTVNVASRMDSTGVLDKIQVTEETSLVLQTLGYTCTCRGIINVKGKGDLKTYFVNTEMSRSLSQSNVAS
# Protocol: as §1
# [12] = biological target: T10, AC5 (Homo sapiens, UniProt O95622); assay: cAMP accumulation assay, AC5-HEK Δ3/6 KO cells; type: cell-based; conditions: for inhibition at 30 µM: read-out: % Inhibited at AC5 ± SEM
# T10 construct: expressed in transfected cells
# T10 sequence (O95622 whole entry, species assumed): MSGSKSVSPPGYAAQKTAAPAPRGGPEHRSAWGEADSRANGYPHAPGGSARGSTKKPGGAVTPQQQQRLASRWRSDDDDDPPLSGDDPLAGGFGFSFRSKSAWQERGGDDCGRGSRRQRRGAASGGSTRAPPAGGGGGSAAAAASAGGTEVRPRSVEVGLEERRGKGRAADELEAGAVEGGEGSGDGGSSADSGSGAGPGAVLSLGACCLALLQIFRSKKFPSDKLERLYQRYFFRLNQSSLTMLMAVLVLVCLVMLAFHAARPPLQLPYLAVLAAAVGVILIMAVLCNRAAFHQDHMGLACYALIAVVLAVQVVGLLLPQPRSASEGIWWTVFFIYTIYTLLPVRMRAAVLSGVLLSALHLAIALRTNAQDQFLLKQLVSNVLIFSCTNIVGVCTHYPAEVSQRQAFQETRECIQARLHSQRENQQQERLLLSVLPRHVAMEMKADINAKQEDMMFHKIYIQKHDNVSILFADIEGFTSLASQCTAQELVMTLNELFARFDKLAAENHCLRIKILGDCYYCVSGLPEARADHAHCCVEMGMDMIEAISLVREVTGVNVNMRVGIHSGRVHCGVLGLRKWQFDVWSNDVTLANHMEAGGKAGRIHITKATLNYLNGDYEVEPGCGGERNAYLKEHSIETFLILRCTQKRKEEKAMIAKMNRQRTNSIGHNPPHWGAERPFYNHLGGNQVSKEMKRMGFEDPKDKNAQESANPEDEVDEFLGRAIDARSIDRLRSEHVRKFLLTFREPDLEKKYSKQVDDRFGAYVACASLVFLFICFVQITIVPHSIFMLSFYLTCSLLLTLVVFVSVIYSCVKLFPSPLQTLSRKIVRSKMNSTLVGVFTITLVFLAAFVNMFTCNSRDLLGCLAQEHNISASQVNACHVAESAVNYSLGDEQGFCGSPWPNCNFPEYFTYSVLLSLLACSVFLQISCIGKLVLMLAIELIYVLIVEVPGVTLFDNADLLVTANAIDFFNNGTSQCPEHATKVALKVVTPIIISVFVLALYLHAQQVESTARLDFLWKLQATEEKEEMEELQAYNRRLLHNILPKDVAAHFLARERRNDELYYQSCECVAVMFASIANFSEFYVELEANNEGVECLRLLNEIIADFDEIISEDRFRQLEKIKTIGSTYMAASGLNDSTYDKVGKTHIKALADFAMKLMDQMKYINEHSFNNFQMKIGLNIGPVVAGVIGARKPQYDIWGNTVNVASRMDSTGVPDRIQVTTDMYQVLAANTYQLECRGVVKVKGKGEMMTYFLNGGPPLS
# Protocol: as §1
# [13] = Cytotoxicity assay (CellTiter-Glo 2.0) in AC1-HEK Δ3/6 KO cells; type: cell-based; conditions: human, percent of vehicle, read-out: % Viable Cells at AC1 30 μM
# Protocol: as §1
# [14] = initial examination, 10,000 cells per well, 3 μM A23187, 1 h RT, read-out: AC1 IC50 ± SEM
# [15] = CDI analog SAR set, 3 μM A23187, read-out: IC50 (μM) ± SEM AC1
SMILES,IC50 [1],Ki [1],Ki (μM) AC8 NT [2],Ki ratio (AC8 NT/AC1) [2],Ki (μM) AC8 C2b [3],Ki ratio (AC8-C2b/AC1) [3],IC50 [4],IC50 [5],viability at 30 min [6],"IC50 [8, 14]",chemical shift perturbations (CSP) of 15N-CaM [9],AC1-CaM FP % inhib [1],fold selective for AC8 over AC1 in the NanoBiT assay [5],inhibition of AC1 activity (efficacy) [8],"IC50 [8, 15]",inhibition of AC1 activity [8],IC50 [10],% Inhibited at AC2 ± SEM [11],inhibition at 30 µM [11],"viability at 30 min, 30 μM [13]",further results
CC(=O)Oc1c(Sc2ccc(Cl)cc2)c(C)nn1C(C)(C)C [Compound 13],73.5 µM,17.4 µM,n/i,AC1 Selective,n/i,AC1 Selective,16.1 ± 1.13 µM,13.1 ± 1.19 µM,96%,31 ± 6.63 µM,largest CSPs,–,–,–,–,–,–,–,–,–,cell viability reduced at highest concentration tested ([7]; 316 μM): ~50%; cell viability at ∼300 μM ([7]; ∼300 μM): decrease in cell viability
O=S(=O)(Nc1ccc2c(c1)N(S(=O)(=O)c1ccc(F)cc1)CCC2)c1cccc(F)c1 [Compound 18],38.4 µM,9.1 µM,n/i,AC1 Selective,n/i,AC1 Selective,16.1 ± 1.12 µM,5.71 ± 1.22 µM,100%,6.7 ± 0.7 µM,modest chemical shift changes,54%,~3 fold,~70%,–,–,–,–,–,–,"viability at 30 min, 316 µM ([6]; 316 μM, read-out: cell viability at highest concentration tested): 90%"
Cn1cc(C(=O)Nc2ccc(Cl)cc2Cl)c2[nH]c(=O)n(-c3ccc(Cl)cc3)c(=O)c21 [Compound 21],9.9 µM,–,n/i,AC1 Selective,n/i,AC1 Selective,25.6 ± 1.42 µM,6.8 ± 1.19 µM,100%,8.77 ± 4.47 µM,modest chemical shift changes,59%,2- to 4 fold,~50%,–,–,–,–,–,–,–
CCc1cc(C(c2cccs2)N2CCC(C)CC2)c(NC(=O)c2ccco2)s1 (stereo not shown) [Compound 24],–,–,–,–,–,–,–,–,–,–,–,–,–,–,2.75 ± 0.82 µM,100%,2.7 ± 0.24 µM,15 ± 11%,< 16%,77%,% Inhibited at AC5 ± SEM ([12]; 30 μM): 16 ± 11%; inhibition at 30 µM [12]: < 16%
Cc1cc(C(c2cccs2)N2CCN(C)CC2)c(NC(=O)c2ccco2)s1 (stereo not shown) [Compound 25],–,–,–,–,–,–,–,–,–,–,–,–,–,–,6.39 ± 0.89 µM,100%,8.85 ± 2.7 µM,–,52 ± 11%,94%,inhibition at 30 µM [12]: 46 ± 5%
O=C(Nc1sc2c(c1C(c1cccs1)N1CCOCC1)CCCC2)c1ccco1 (stereo not shown) [Compound 32],–,–,–,–,–,–,–,–,–,–,–,–,–,–,0.89 ± 0.04 µM,100%,1.86 ± 0.32 µM,10 ± 8%,< 16%,100%,–
